How the values were obtained:
[1] = molar heat capacity at constant pressure; wn = mass fraction of the nth substance listed; conditions: 101 kPa, Liquid, Small sample (50 mg) DSC
[2] = molar heat capacity at constant pressure; conditions: 101.33 kPa, Liquid, Small sample (50 mg) DSC

NCC(=O)[O-].[Na+] [sodium glycinate] + O
molar heat capacity at constant pressure [J/K/mol], [1]
Conditions | 298.15 K | 303.15 K | 308.15 K | 313.15 K | 318.15 K | 323.15 K
w1 = 0.01 | 75.2 | 75.21 | 75.25 | 75.32 | 75.4 | 75.41
w1 = 0.05 | 76.7 | 76.72 | 76.77 | 76.85 | 76.92 | 77.05
w1 = 0.1 | 77.39 | 77.41 | 77.47 | 77.53 | 77.59 | 77.67
w1 = 0.15 | 78.81 | 78.85 | 78.91 | 78.99 | 79.07 | 79.2
w1 = 0.2 | 78.23 | 78.79 | 79.45 | 80.12 | 80.77 | 81.48
w1 = 0.3 | 80.84 | 81.46 | 82.1 | 82.75 | 83.44 | 84.11

O [water]
[2]
Conditions | molar heat capacity at constant pressure [J/K/mol]
303.15 K | 75.29
308.15 K | 75.36
313.15 K | 75.38
318.15 K | 75.39
323.15 K | 75.39
328.15 K | 75.39
333.15 K | 75.41
338.15 K | 75.41
343.15 K | 75.43
348.15 K | 75.45
353.15 K | 75.48

From the NIST ThermoML archive (doi:10.1021/je9002948)
